# From patent US12116357B2, “Heteroaryl-triazole and heteroaryl-tetrazole compounds as pesticides” (Bayer Aktiengesellschaft, priority 2018, dated 2024)
# Legend:
# Format in all cases: in vivo
# Nilaparvata lugens = Nilaparvata lugens spray test; details: 96 h
# Experimental: (§1) • Solvent: 78.0 parts by weight of acetone • 1.5 parts by weight of dimethylformamide • Emulsifier: alkylarylpolyglycol ether
# (§2) To produce a suitable preparation of active compound, 1 part by weight of active compound is mixed with the stated amount of solvents and is diluted with water, containing an emulsifier concentration of 1000 ppm, to the desired concentration. Further test concentrations are prepared by dilution with emulsifier containing water.
# Rice plants (Oryza sativa) are sprayed with a preparation of the active ingredient of the desired concentration and the plants are infested with the brown planthopper (Nilaparvata lugens).
# After 4 days mortality in % is determined. 100% means all planthoppers have been killed and 0% means none of the planthoppers have been killed.
# Myzus persicae [1] = assay: Myzus persicae oral test; details: 120 h
# Experimental: • Solvent: 100 parts by weight acetone
# To produce a suitable preparation of active compound, 1 part by weight of active compound is mixed with the stated amount of solvent, and the concentrate is diluted with water to the desired concentration. 50 μl compound solution is filled in microtiter plates and 150 μl IPL41 insect medium (33%+15% sugar) is added to obtain a total volume of 200 μl per well. Afterwards the plates are sealed with parafilm through which a mixed population of the green peach aphid (Myzus persicae) can suck on the compound preparation.
# (§3) After 5 days mortality in % is determined. 100% means all aphids have been killed and 0% means none of the aphids have been killed.
# Nezara viridula = Nezara viridula spray test; details: 96 h
# Experimental: as §1
# To produce a suitable preparation of active compound, 1 part by weight of active compound is mixed with the stated amount of solvent, and the concentrate is diluted with water, containing an emulsifier concentration of 1000 ppm, to the desired concentration. Further test concentrations are prepared by dilution with emulsifier containing water.
# Barley plants (Hordeum vulgare) infested with larvae of the southern green stink bug (Nezara viridula) are sprayed with a test solution containing the desired concentration of the active ingredient.
# After 4 days mortality in % is determined. 100% means all the stink bugs have been killed; 0% means none of the stink bugs have been killed.
# Phaedon cochleariae = Phaedon cochleariae spray test; details: 168 h, after 7 days
# Experimental: as §1, §2
# Chinese cabbage (Brassica pekinensis) leaf disks are sprayed with a preparation of the active ingredient of the desired concentration. Once dry, the leaf disks are infested with mustard beetle larvae (Phaedon cochleariae).
# After 7 days mortality in % is determined. 100% means all beetle larvae have been killed and 0% means none of the beetle larvae have been killed.
# Ctenocephalides felis [2] = assay: Ctenocephalides felis in-vitro contact test, adult cat flea; details: 5 μg/cm^2, after 48 hours, read-out: efficacy (fleas dead or moribund)
# Experimental: 9 mg compound is solved in 1 ml acetone and diluted with acetone to the desired concentration. 250 μl of the test solution is filled in 25 ml glass test tubes and homogeneously distributed on the inner walls by rotation and tilting on a shaking device (2 h at 30 rpm). With a compound concentration of 900 ppm, an inner surface of 44.7 cm^2 and a homogeneous distribution, a dose of 5 μg/cm^2 is achieved.
# After the solvent has evaporated, each test tube is filled with 5-10 adult cat fleas (Ctenocephalides felis), closed with a perforated lid and incubated in a lying position at room temperature and relative humidity. After 48 hours efficacy is determined. The fleas are patted on the ground of the tubes and are incubated on a heating plate at 45-50° C. for at most 5 minutes. Immotile or uncoordinated moving fleas, which are not able to escape the heat by climbing upwards, are marked as dead or moribund.
# An efficacy of 100% means all fleas are dead or moribund; 0% means no fleas are dead or moribund.
# Ctenocephalides felis [3] = assay: Ctenocephalides felis oral test; details: 48 h, 100 ppm in cattle blood, after 2 days
# Experimental: (§4) • Solvent: dimethyl sulfoxide
# To produce a suitable preparation of active compound, 10 mg of active compound are dissolved in 0.5 ml solvent, and the concentrate is diluted with cattle blood to the desired concentration.
# Approximately 20 adult unfed cat fleas (Ctenocephalides felis) are placed in flea chambers. The blood chamber, sealed with parafilm on the bottom, are filled with cattle blood supplied with compound solution and placed on the gauze covered top of the flea chamber, so that the fleas are able to suck the blood. The blood chamber is heated to 37° C. whereas the flea chamber is kept at room temperature.
# After 2 days mortality in % is determined. 100% means all the fleas have been killed; 0% means none of the fleas have been killed.
# [4] = system: Aedes aegypti strain MONHEIM; assay: Aedes aegypti test (surface treatment & contact assay); details: 24 hours after contact, read-out: efficacy (mortality); for mortality at 20 mg/m2: surface concentration 20 mg/m^2, 30 min exposure
# Experimental: (§5) • Solvent: Aceton+2000 ppm rapeseed oil methyl ester (RME)
# In order to produce a sufficient, active ingredient containing solution it is necessary to solve the test compound in the solvent-mix (acetone at 2 mg/ml/RME 2000 ppm). This solution is pipetted onto a glazed tile and after evaporation of the acetone, adult mosquitoes of the species Aedes aegypti strain MONHEIM are placed onto the dried surface. The exposure time is 30 minutes.
# (§6) Mortality in percent (%) is determined 24 hours after contact of the insects to the treated surface. 100% mortality means that all tested insects are dead, whereas 0% means that no insect died.
# Spodoptera frugiperda = Spodoptera frugiperda spray test; details: 168 h
# Experimental: (§7) • Solvent: 78.0 parts by weight acetone • 1.5 parts by weight dimethylformamide • Emulsifier: alkylarylpolyglycol ether
# as §2
# Maize (Zea mays) leaf sections are sprayed with a preparation of the active ingredient of the desired concentration. Once dry, the leaf sections are infested with fall armyworm larvae (Spodoptera frugiperda).
# After 7 days mortality in % is determined. 100% means all caterpillars have been killed and 0% means none of the caterpillars have been killed.
# Boophilus microplus = Boophilus microplus injection test; details: Rhipicephalus microplus, 168 h, 20 μg/animal, egg deposition after 7 days, read-out: efficacy (infertile eggs)
# Experimental: as §4
# To produce a suitable preparation of active compound, 10 mg of active compound are dissolved in 0.5 ml solvent, and the concentrate is diluted with solvent to the desired concentration.
# Five adult engorged female ticks (Boophilus microplus) are injected with 1 μl compound solution into the abdomen. The ticks are transferred into replica plates and incubated in a climate chamber.
# After 7 days egg deposition of fertile eggs is monitored. Eggs where fertility is not visible are stored in a climate chamber till hatching after about 42 days. An efficacy of 100% means all eggs are infertile; 0% means all eggs are fertile.
# [5] = system: Musca domestica strain WHO-N; assay: Musca domestica test (surface treatment & contact assay); details: 24 hours after contact, read-out: efficacy (mortality)
# Experimental: as §5
# In order to produce a sufficient, active ingredient containing solution it is necessary to solve the test compound in the solvent-mix (acetone at 2 mg/ml/RME 2000 ppm). This solution is pipetted onto a glazed tile and after evaporation of the acetone, adult flies of the species Musca domestica strain WHO-N are placed onto the dried surface. The exposure time is 30 minutes.
# as §6
# [6] = system: Anopheles funestus strain FUMOZ-R; assay: Anopheles funestus test (surface treatment & contact assay); details: 24 hours after contact, read-out: efficacy (mortality); for mortality at 4 mg/m2: surface concentration 4 mg/m^2, 30 min exposure; for mortality at 20 mg/m2: surface concentration 20 mg/m^2, 30 min exposure
# Experimental: as §5
# In order to produce a sufficient, active ingredient containing solution it is necessary to solve the test compound in the solvent-mix (acetone at 2 mg/ml/RME 2000 ppm). This solution is pipetted onto a glazed tile and after evaporation of the acetone, adult mosquitoes of the species Anopheles funestus strain FUMOZ-R (Hunt et al., Med. Vet. Entomol. 2005 September; 19(3): 271-275) are placed onto the dried surface. The exposure time is 30 minutes.
# as §6
# Myzus persicae [7] = assay: Myzus persicae spray test; details: 120 h
# Experimental: as §7, §2
# Chinese cabbage (Brassica pekinensis) leaf disks infected with all instars of the green peach aphid (Myzus persicae), are sprayed with a preparation of the active ingredient of the desired concentration.
# as §3
# [8] = surface concentration 4 mg/m^2, 30 min exposure
smiles,measurement,setting,value
CC(c1ncnn1-c1ncccn1)N(C(=O)c1cc(Cl)cc(C(F)(F)F)c1)C1CSC1 (centres unmarked) [Example I-024],mortality at 500 g/ha,Nilaparvata lugens,100%
same,mortality at 4 ppm,Myzus persicae [1],100%
same,mortality at 20 ppm,Myzus persicae [1],100%
same,mortality at 500 g/ha,Nezara viridula,100%
same,mortality at 500 g/ha,Phaedon cochleariae,100%
same,pest or weed control at 5 µg/cm2,Ctenocephalides felis [2],100%
same,mortality at 100 ppm,Ctenocephalides felis [3],100%
CC(c1ncnn1-c1ncccn1)N(Cc1ncccn1)C(=O)c1cc(Cl)cc(C(F)(F)F)c1 (centres unmarked) [Example I-010],mortality at 4 mg/m2,[4]; [8],80 to 100%
same,mortality at 20 mg/m2,[4],90 to 100%
same,mortality at 500 g/ha,Spodoptera frugiperda,100%
same,mortality at 4 ppm,Myzus persicae [1],100%
same,mortality at 20 ppm,Myzus persicae [1],100%
same,mortality at 500 g/ha,Nezara viridula,100%
same,pest or weed control at 0.02 mg,Boophilus microplus,100%
same,mortality at 500 g/ha,Phaedon cochleariae,100%
same,pest or weed control at 5 µg/cm2,Ctenocephalides felis [2],100%
same,mortality at 20 mg/m2,"[5]; surface concentration 20 mg/m^2, 30 min exposure",90 to 100%
same,mortality at 100 ppm,Ctenocephalides felis [3],100%
same,mortality at 4 mg/m2,[6],85 to 100%
same,mortality at 20 mg/m2,[6],85 to 100%
CSCCN(C(=O)c1cc(F)cc(C2CC2)c1)C(C)c1ncnn1-c1ccc(C#N)cn1 (centres unmarked) [Example I-040],mortality at 500 g/ha,Myzus persicae [7],100%
same,pest or weed control at 5 µg/cm2,Ctenocephalides felis [2],100%
CC(c1ncnn1-c1ncccn1)N(C(=O)c1cc(Cl)cc(C(F)(F)F)c1)C1CS(=O)(=O)C1 (centres unmarked) [Example I-025],mortality at 20 mg/m2,[4],90 to 100%
same,mortality at 500 g/ha,Nilaparvata lugens,90%
same,mortality at 4 ppm,Myzus persicae [1],100%
same,mortality at 20 ppm,Myzus persicae [1],100%
same,mortality at 500 g/ha,Nezara viridula,100%
same,mortality at 500 g/ha,Phaedon cochleariae,100%
same,mortality at 100 ppm,Ctenocephalides felis [3],100%
same,mortality at 4 mg/m2,[6],85 to 100%
same,mortality at 20 mg/m2,[6],85 to 100%
CC(c1ncnn1-c1ncccn1)N(CCNS(C)(=O)=O)C(=O)c1cc(Cl)cc(C(F)(F)F)c1 (centres unmarked) [Example I-041],mortality at 500 g/ha,Myzus persicae [7],90%
same,mortality at 500 g/ha,Spodoptera frugiperda,100%
same,mortality at 4 ppm,Myzus persicae [1],100%
CC(c1ncnn1-c1ncccn1)N(CC1OCCO1)C(=O)c1cc(Cl)cc(C(F)(F)F)c1 (centres unmarked) [Example I-023],mortality at 500 g/ha,Myzus persicae [7],100%
same,mortality at 500 g/ha,Spodoptera frugiperda,100%
same,mortality at 4 ppm,Myzus persicae [1],100%
same,pest or weed control at 0.02 mg,Boophilus microplus,100%
same,pest or weed control at 5 µg/cm2,Ctenocephalides felis [2],80%
same,mortality at 100 ppm,Ctenocephalides felis [3],100%
same,mortality at 20 mg/m2,[6],85 to 100%
CC(c1ncnn1-c1ncccn1)N(CC1CSC1)C(=O)c1cc(Cl)cc(C(F)(F)F)c1 (centres unmarked) [Example I-011],mortality at 500 g/ha,Myzus persicae [7],100%
same,mortality at 20 mg/m2,[4],90 to 100%
same,mortality at 500 g/ha,Nilaparvata lugens,100%
same,mortality at 500 g/ha,Spodoptera frugiperda,100%
same,mortality at 4 ppm,Myzus persicae [1],100%
same,mortality at 20 ppm,Myzus persicae [1],100%
same,mortality at 500 g/ha,Nezara viridula,100%
same,pest or weed control at 0.02 mg,Boophilus microplus,95%
same,mortality at 500 g/ha,Phaedon cochleariae,100%
same,mortality at 4 mg/m2,[5]; [8],90 to 100%
same,mortality at 100 ppm,Ctenocephalides felis [3],100%
same,mortality at 4 mg/m2,[6],85 to 100%
same,mortality at 20 mg/m2,[6],85 to 100%
CC(=O)NCCN(C(=O)c1cc(Cl)cc(C(F)(F)F)c1)C(C)c1ncnn1-c1ncccn1 (centres unmarked) [Example I-043],mortality at 500 g/ha,Myzus persicae [7],100%
same,mortality at 500 g/ha,Spodoptera frugiperda,100%
same,mortality at 4 ppm,Myzus persicae [1],100%
same,mortality at 500 g/ha,Nezara viridula,100%
CSCCN(C(=O)c1cc(Cl)cc(S(C)(=O)=O)c1)C(C)c1ncnn1-c1ncccn1 (centres unmarked) [Example I-032],mortality at 500 g/ha,Myzus persicae [7],90%
same,mortality at 500 g/ha,Nilaparvata lugens,100%
same,mortality at 4 ppm,Myzus persicae [1],100%
same,mortality at 500 g/ha,Nezara viridula,100%
same,pest or weed control at 5 µg/cm2,Ctenocephalides felis [2],100%
CSCCN(C(=O)c1cc(Cl)cc(Cl)c1)C(C)c1ncnn1-c1ccc(C#N)cn1 (centres unmarked) [Example I-036],mortality at 500 g/ha,Myzus persicae [7],90%
same,mortality at 500 g/ha,Spodoptera frugiperda,100%
same,mortality at 4 ppm,Myzus persicae [1],100%
same,mortality at 500 g/ha,Nezara viridula,90%
same,pest or weed control at 5 µg/cm2,Ctenocephalides felis [2],100%
CSCCN(C(=O)c1cc(Cl)cc(S(F)(F)(F)(F)F)c1)C(C)c1ncnn1-c1ccc(C#N)cn1 (centres unmarked) [Example I-039],mortality at 500 g/ha,Myzus persicae [7],100%
same,mortality at 500 g/ha,Spodoptera frugiperda,100%
same,mortality at 500 g/ha,Nezara viridula,100%
same,pest or weed control at 5 µg/cm2,Ctenocephalides felis [2],100%
CCOC(=O)NCCN(C(=O)c1cc(Cl)cc(C(F)(F)F)c1)C(C)c1ncnn1-c1ncccn1 (centres unmarked) [Example I-042],mortality at 500 g/ha,Myzus persicae [7],100%
same,mortality at 500 g/ha,Nilaparvata lugens,100%
same,mortality at 500 g/ha,Spodoptera frugiperda,100%
same,mortality at 4 ppm,Myzus persicae [1],100%
same,mortality at 500 g/ha,Nezara viridula,100%
